From patent US9725445B2, “Cycloalkyl nitrile pyrazolo pyridones as Janus kinase inhibitors” (Merck Sharp & Dohme Corp., priority 2013, dated 2017)
pIC50: −log10 of the molar value.

These compounds were tested against JAK2 (Homo sapiens (Human), UniProt O60674) (assay: Jak biochemical HTRF assay, JAK2). Settings: HTRF biochemical assay, recombinant GST-tagged catalytic domain; read-out: JAK2 IC50.
Chain of JAK2 (O60674 849-1124): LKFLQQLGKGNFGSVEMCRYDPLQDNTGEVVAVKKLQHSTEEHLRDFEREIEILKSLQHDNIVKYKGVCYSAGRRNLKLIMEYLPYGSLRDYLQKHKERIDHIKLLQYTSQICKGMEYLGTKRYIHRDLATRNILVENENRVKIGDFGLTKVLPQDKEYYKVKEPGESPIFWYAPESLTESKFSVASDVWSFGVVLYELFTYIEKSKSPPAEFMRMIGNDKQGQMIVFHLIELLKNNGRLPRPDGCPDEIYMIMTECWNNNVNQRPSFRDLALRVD
Procedure: (§1) Jak Biochemical HTRF Assay Protocol
(§2) The ability of compounds to inhibit the activity of JAK1, JAK2, JAK3, and Tyk2 was measured using a recombinant purified GST-tagged catalytic domain for each enzyme (Invitrogen JAK1 #M4290, JAK2 #M4290, JAK3 #M4290, Tyk2 #M4290) in an HTRF format biochemical assay. […] The basic assay protocol is as follows: First, 250 nL of diluted compounds in DMSO were dispensed into the wells of a dry 384-well Black plate (Greiner #781076) using a Labcyte Echo 555 acoustic dispenser. Subsequent reagent additions employed an Agilent Bravo. […] After equilibration, 2 μL of 10×ATP in 1× assay buffer was added to initiate the kinase reaction and the plates were shaken and then incubated at room temperature for 120 minutes. […] Plates were shaken and centrifuged and then incubated 60 minutes at room temperature and then read on a Perkin Elmer Envision (λex=337 nm, λem=665 and 615 nm, TRF delay time=20 μs). HTRF signal=10,000*665 nm reading/615 nm reading. After normalization to untreated controls, the percent inhibition of the HTRF signal at each compound concentration was calculated. The plot of percent inhibition versus the log of compound concentration was fit with a 4-parameter dose response equation to calculate IC50 values.
(§3) Final Reaction Conditions were:
(§4) Examples of the instant invention were evaluated in JAK1 and JAK2 in vitro binding assays.
For CC(C)(C)S(=O)(=O)c1ccc(Nc2nn([C@H]3CC(F)(F)C[C@@H]3C#N)c3cc[nH]c(=O)c23)cc1 (single isomer, unassigned) [Example 22-4, (1S,2S or 1R,2R)-2-(3-{[4-(tert-butylsulfonyl)phenyl]amino}-4-oxo-4,5-dihydro-1H-pyrazolo[4,3-c]pyridin-1-yl)-4,4-difluorocyclopentanecarbonitrile], the pIC50 was 9.46. CC(O)(CCO)c1cc(Nc2nn([C@H]3CCCC[C@@H]3C#N)c3cc[nH]c(=O)c23)ccc1S(C)(=O)=O (stereo partly drawn) [Example 3-86, (1S,2S)-2-(3-{[3-(1,3-dihydroxy-1-methylpropyl)-4-(methylsulfonyl)phenyl]amino}-4-oxo-4,5-dihydro-1H-pyrazolo[4,3-c]pyridin-1-yl)cyclohexanecarbonitrile] gave a pIC50 of 8.12. Compound CC(O)(c1ccc(Nc2nn([C@H]3CCC[C@@H]3C#N)c3cc[nH]c(=O)c23)cc1)C(F)(F)F (single isomer, unassigned) [Example 3-138, (1S,2S)-2-[4-oxo-3-({4-[(1R or 1S)-2,2,2-trifluoro-1-hydroxy-1-methylethyl]phenyl}amino)-4,5-dihydro-1H-pyrazolo[4,3-c]pyridin-1-yl]cyclopentanecarbonitrile] has a pIC50 of 9.18. With C[C@H](N[C@H]1CC[C@H](n2nc(Nc3ccc(Cl)c(F)c3)c3c(=O)[nH]ccc32)[C@@H](C#N)C1)C1CC1 [Example 5-6, (1S,2S,5S)-2-(3-((4-chloro-3-fluorophenyl)amino)-4-oxo-4,5-dihydro-1H-pyrazolo[4,3-c]pyridin-1-yl)-5-(((S)-1-cyclopropylethyl)amino)cyclohexanecarbonitrile] the pIC50 was 7.26.

These compounds were tested against JAK1 (Homo sapiens (Human), UniProt P23458) (assay: Jak biochemical HTRF assay, JAK1). Settings: HTRF biochemical assay, recombinant GST-tagged catalytic domain; read-out: JAK1 IC50.
Chain of JAK1 (P23458 875-1153): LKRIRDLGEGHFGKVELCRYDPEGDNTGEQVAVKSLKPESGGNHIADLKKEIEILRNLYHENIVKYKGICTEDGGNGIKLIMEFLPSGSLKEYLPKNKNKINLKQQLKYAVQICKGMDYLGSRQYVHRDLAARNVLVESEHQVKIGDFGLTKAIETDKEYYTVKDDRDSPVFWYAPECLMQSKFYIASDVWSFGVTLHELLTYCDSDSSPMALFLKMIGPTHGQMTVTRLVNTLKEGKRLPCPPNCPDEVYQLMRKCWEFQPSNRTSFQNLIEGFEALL
Procedure: as §1, §2, §3, §4
CC1c2cc(Nc3nn([C@H]4CCCC[C@@H]4C#N)c4cc[nH]c(=O)c34)ccc2S(=O)(=O)N1CC(F)(F)F (single isomer, unassigned) [Example 3-128, (1S,2S)-2-(3-(((R or S)-3-methyl-1,1-dioxido-2-(2,2,2-trifluoroethyl)-2,3-dihydrobenzo[d]isothiazol-5-yl)amino)-4-oxo-4,5-dihydro-1H-pyrazolo[4,3-c]pyridin-1-yl)cyclohexanecarbonitrile] was tested, and the pIC50 was 10.02. CC(C)N1Cc2cc(Nc3nn([C@H]4CCCC[C@@H]4C#N)c4cc[nH]c(=O)c34)ccc2C1=O [Example 3-153, (1S,2S)-2-(3-{[2-(1-methylethyl)-1-oxo-2,3-dihydro-1H-isoindol-5-yl]amino}-4-oxo-4,5-dihydro-1H-pyrazolo[4,3-c]pyridin-1-yl)cyclohexanecarbonitrile] gave a pIC50 of 10.24. COCC(C)(C)CN1Cc2cc(Nc3nn([C@@H]4CCCCC[C@H]4C#N)c4cc[nH]c(=O)c34)ccc2S1(=O)=O (single isomer, unassigned) [Example 15-46, (1R,2R or 1S,2S)-2-(3-{[2-(3-methoxy-2,2-dimethylpropyl)-1,1-dioxido-2,3-dihydro-1,2-benzisothiazol-5-yl]amino}-4-oxo-4,5-dihydro-1H-pyrazolo[4,3-c]pyridin-1-yl)cycloheptanecarbonitrile] gave a pIC50 of 10.12. With CN(C)C(c1ccc(Nc2nn([C@H]3CCCC[C@@H]3C#N)c3cc[nH]c(=O)c23)cc1)C(F)(F)F (single isomer, unassigned) [Example 9-3, (1S,2S)-2-(3-(4-((S or R)-1-(Dimethylamino)-2,2,2-trifluoroethyl)phenylamino)-4-oxo-4,5-dihydropyrazolo[4,3-c]pyridin-1-yl)cyclohexanecarbonitrile] the pIC50 was 9.80. N#C[C@H]1CCCC[C@@H]1n1nc(Nc2ccc(F)cc2)c2c(=O)[nH]ccc21 (racemic) [Example 2-1, (trans)-2-{3-[(4-Fluorophenyl)amino]-4-oxo-4,5-dihydro-1H-pyrazolo[4,3-c]pyridin-1-yl}cyclohexanecarbonitrile] was tested, and the pIC50 was 9.25. CC(C)OC(=O)C(C)(C)C(O)(c1ccc(Nc2nn([C@H]3CCCC[C@@H]3C#N)c3cc[nH]c(=O)c23)cc1)C(F)(F)F (single isomer, unassigned) [Example 3-120, (R or S) Isopropyl 3-(4-((1-((1S,2S)-2-cyanocyclohexyl)-4-oxo-4,5-dihydro-1H-pyrazolo[4,3-c]pyridin-3-yl)amino)phenyl)-4,4,4-trifluoro-3-hydroxy-2,2-dimethylbutanoate] gave a pIC50 of 9.00. For N#C[C@H]1CCCC[C@@H]1n1nc(Nc2cccc(CN)c2)c2c(=O)[nH]ccc21 [Example 6-1, (1S,2S)-2-(3-((3-(Aminomethyl)phenyl)amino)-4-oxo-4,5-dihydro-1H-pyrazolo[4,3-c]pyridin-1-yl)cyclohexanecarbonitrile], the pIC50 was 8.82. N#C[C@H]1CCC[C@@H]1n1nc(Nc2ccc(C3(C(F)(F)F)CCCCN3)cc2)c2c(=O)[nH]ccc21 (single isomer, unassigned) [Example 15-71, (1S,2S)-2-[4-oxo-3-({4-[(2S or 2R)-2-(trifluoromethyl)piperidin-2-yl]phenyl}amino)-4,5-dihydro-1H-pyrazolo[4,3-c]pyridin-1-yl]cyclopentanecarbonitrile] gave a pIC50 of 10.16. In the case of CC(C)(C)OC(=O)CCN1Cc2ccc(Nc3nn([C@H]4CCCC[C@@H]4C#N)c4cc[nH]c(=O)c34)cc2C1 [Example 3-163, tert-butyl 3-[5-({1-[(1S,2S)-2-cyanocyclohexyl]-4-oxo-4,5-dihydro-1H-pyrazolo[4,3-c]pyridin-3-yl}amino)-1,3-dihydro-2H-isoindol-2-yl]propanoate], the pIC50 was 9.31. Compound N#C[C@H]1CCCC[C@@H]1n1nc(Nc2ccc3c(c2)CN(C2CCOCC2)S3(=O)=O)c2c(=O)[nH]ccc21 [Example 15-44, (1S,2S)-2-(3-{[1,1-dioxido-2-(tetrahydro-2H-pyran-4-yl)-2,3-dihydro-1,2-benzisothiazol-5-yl]amino}-4-oxo-4,5-dihydro-1H-pyrazolo[4,3-c]pyridin-1-yl)cyclohexanecarbonitrile] has a pIC50 of 10.24. N#C[C@@H]1CCCC[C@H]1n1nc(Nc2cccc(CNC(=O)c3cnco3)c2)c2c(=O)[nH]ccc21 [Example 3-13, N-[3-({1-[(1R,2R)-2-cyanocyclohexyl]-4-oxo-4,5-dihydro-1H-pyrazolo[4,3-c]pyridin-3-yl}amino)benzyl]-1,3-oxazole-5-carboxamide] showed a pIC50 of 7.85. Work on N#C[C@H]1C[C@@H](N2CC(O)C2)CC[C@@H]1n1nc(Nc2ccc(Cl)cc2)c2c(=O)[nH]ccc21 [Example 5-20, (1S,2S,5S)-2-(3-((4-chlorophenyl)amino)-4-oxo-4,5-dihydro-1H-pyrazolo[4,3-c]pyridin-1-yl)-5-(3-hydroxyazetidin-1-yl)cyclohexanecarbonitrile] yielded a pIC50 of 9.85. With CC(C)(C)N1Cc2cc(Nc3nn([C@H]4CCCCC[C@H]4C#N)c4cc[nH]c(=O)c34)ccc2S1(=O)=O (single isomer, unassigned) [Example 3-178, (1R,2S or 1S,2R)-2-{3-[(2-tert-butyl-1,1-dioxido-2,3-dihydro-1,2-benzisothiazol-5-yl)amino]-4-oxo-4,5-dihydro-1H-pyrazolo[4,3-c]pyridin-1-yl}cycloheptanecarbonitrile] the pIC50 was 9.08. In the case of CC(C)(C)[S@@+]([O-])N[C@@H](c1ccc(Nc2nn([C@H]3CCCC[C@@H]3C#N)c3cc[nH]c(=O)c23)cc1)C(F)(F)F (stereo in doubt) [Example 3-55], the pIC50 was 9.28. In the case of N#C[C@H]1CCC[C@@H]1n1nc(Nc2ccc(S(N)(=O)=O)cc2)c2c(=O)[nH]ccc21 [Example 3-99, 4-({1-[(1S,2S)-2-cyanocyclopentyl]-4-oxo-4,5-dihydro-1H-pyrazolo[4,3-c]pyridin-3-yl}amino)benzenesulfonamide], the pIC50 was 10.05. CC(C)(C)[S@+]([O-])N[C@H](c1ccc(Nc2nn([C@H]3CCCC[C@@H]3C#N)c3cc[nH]c(=O)c23)cc1)C(F)(F)F [Example 3-56, N-{(1R)-1-[4-({1-[(1S,2S)-2-cyanocyclohexyl]-4-oxo-4,5-dihydro-1H-pyrazolo[4,3-c]pyridin-3-yl}amino)phenyl]-2,2,2-trifluoroethyl}-2-methylpropane-2-sulfinamide] showed a pIC50 of 9.51. With CC1NCc2cc(Nc3nn([C@H]4CCCC[C@@H]4C#N)c4cc[nH]c(=O)c34)ccc21 (mixture of isomers) [Example 12-3, (1S,2S)-2-(3-{[(1S and 1R)-1-methyl-2,3-dihydro-1H-isoindol-5-yl]amino}-4-oxo-4,5-dihydro-1H-pyrazolo[4,3-c]pyridin-1-yl)cyclohexanecarbonitrile] the pIC50 was 9.09. With CC(c1ccc(Nc2nn([C@H]3CCCC[C@@H]3C#N)c3cc[nH]c(=O)c23)cc1)n1ccnn1 (single isomer, unassigned) [Example 15-42, (1S,2S)-2-[4-oxo-3-({4-[(1S or 1R)-1-(1H-1,2,3-triazol-1-yl)ethyl]phenyl}amino)-4,5-dihydro-1H-pyrazolo[4,3-c]pyridin-1-yl]cyclohexanecarbonitrile] the pIC50 was 9.82. CC(C)(CCO)N1Cc2cc(Nc3nn([C@H]4CCCC[C@@H]4C#N)c4cc[nH]c(=O)c34)ccc2S1(=O)=O [Example 3-81, (1S,2S)-2-(3-{[2-(3-hydroxy-1,1-dimethylpropyl)-1,1-dioxido-2,3-dihydro-1,2-benzisothiazol-5-yl]amino}-4-oxo-4,5-dihydro-1H-pyrazolo[4,3-c]pyridin-1-yl)cyclohexanecarbonitrile] gave a pIC50 of 10.26.
